Assay results reported in patent US20120128754A1, “TREATMENT OF EYE DISCOMFORT BY TOPICAL ADMINISTRATION OF A COOLING AGENT TO THE EXTERNAL SURFACE OF THE EYELID” (priority 2009, published 2012).
Converted amounts (≈) assume the structure as drawn.

Assays:
[1] = Observed solubility in vehicle; type: physicochemical; conditions: for solubility in 1 or 2% ethanol-water solution: higher concentrations not achievable without more ethanol
From the text: Wei, 2008 describes delivery of cooling compounds to the skin using a towelette. The wiping of the towelette across skin results in delivery of dermatologically active ingredient(s), meaning that the skin is substantially medicated. […] An ethanol/water mixture with an ethanol concentration of about 5 wt % is required in order to dissolve enough of these compounds to provide a sufficient degree of cooling to relieve eye discomfort; however, at this concentration the ethanol is irritating to the eye surface.
(§1) 2-[((1R,2S,5R)-2-isopropyl-5-methyl-cyclohexanecarbonyl)-amino]-acetic acid 3-hydroxypropyl ester, referred to as CPS-160 (see, e.g., Wei, 2008) was synthesized and tested. […] Thus, CPS-160 was not considered to be an optimal cooling agent for practicing the invention.
(§2) It has a good safety profile because the expected hydrolysis products are the carboxylic acid and glycerol.
Thus, water solubility, as embodied in CPS-030, is a key factor for an ideal API.

[2] = Stability of test solutions stored at room temperature (retention of cooling activity); type: physicochemical; conditions: saline solution
From the text: as §1, §2

closed eyelids [3] = assay: Case reports: eye wipe in subjects with eye strain or dry eyes syndrome; type: in vivo, human; conditions: person
Method: A person routinely spent about 12 hour each day in front of a computer monitor and developed headaches and blurred vision. A visit to a general physician gave a diagnosis of eye strain, but the addiction to the computer monitor continued. The subject found some relief by putting a cold wet towel on their face, but the relief was only temporary. They volunteered to test an eye wipe containing 0.8 mL of a 4 mg/mL solution of CPS-030 and was given instructions on how to wipe the solution onto the eyelids with the eyes closed. […] During this time, the subject watched a basketball playoff game on television and noted that they could clearly distinguish scores on the 46 inch (117 cm) HDTV monitor which were previously indecipherable. For example, they could clearly see scores of 65 vs. 66, and of 98 vs. 99. […] The subject continues to use the eye wipes as an aid to their vision on an “as needed basis”, and the improved visual acuity is a reproducible event.
Their principal complaints were of dryness, itch, and discomfort at the corner of their eyes and blurred vision. These symptoms were present on a daily basis at various levels of intensity. […] It was not clear if they adhered to a strict regimen of self-administration, but they complained of the eye drops running down their cheeks and the expense of the medications. When the symptoms were severe, the subject found some relief by wetting their eyes with cold tap water, but the relief was only temporary. They volunteered to test an eye wipe containing 0.8 mL of a 4 mg/mL solution of CPS-030, and was given instructions on how to apply the solution onto the eyelids with the eyes shut.

closed eyelids [4] = assay: Eye wipe test: cooling sensations after wiping test solution over closed eyelids; type: in vivo, human; conditions: for quality of cooling sensation: CPS-369 1 and 2 mg/mL, CPS-160 2 mg/mL, CPS-030 1, 2, 4, 8 mg/mL; for cooling potency relative to CPS-030: in vivo
Method: The general procedure for testing was to weigh an active ingredient and to disperse it within a saline solution (i.e., Bausch & Lomb, Sensitive Eyes Plus Saline Solution) at stock concentrations of 10 to 20 mg/mL. Test solutions were further diluted with isotonic saline. For single assays, a 1 mL scaled pipette was used to dispense 0.8 to 1 mL of test solution onto a sterile 2″×2″ (5 cm×5 cm) pad, made of rayon-polyester formed fabric (Walgreens Sterile Gauze Pads) weighing on average 285±9 mg.
In the next trials, the wet pad was wiped twice over the closed eyelids of each eye from the medial to the lateral canthus. By subtraction, the loss of weight of the pad averaged 32±1 mg. Thus, each eye received ˜16 μL of the test solution per eye. For a 1 mg/mL solution this was equivalent to ˜16 μg per eye.
The presence of cooling sensations was recorded at 2 and 5 minutes after wiping and at 5 minute intervals thereafter. The intensity of the subjective eye sensation was rated as 0, 1, 2 or 3 with: 0 as no change; 1 as slight coolness or cold; 2 as clear-cut signal of coolness or cold; and 3 as comfortable and soothing sensations of cooling or cold. Recording was continued until two successive zeroes were obtained. The data were plotted using SigmaPlot™ (Systat Software, Point Richmond Calif.).
The results for compound CPS-030 are illustrated in FIG. 1, and reflect the averaged values of 6 to 8 separate trials in the same individual.
FIG. 1 is a graph of cooling intensity versus hours after application of CPS-030 with eye wipes for four dosages (128 μg, 64 μg, 32 μg, and 16 μg; per eye), and illustrates the dose-response data for CPS-030 on cooling sensations after application with eye wipes. The dose reported in μg is per eye, based on solutions of 1.0, 2.0, 4.0 and 8.0 mg of CPS-030 per mL of saline, applied in a volume of 16 μL per eye. […] Confirmatory trials of cooling action for CPS-030 were obtained in 4 individuals.

closed eyelids [5] = assay: as above; type: in vivo, human; conditions: for sensations accompanying cooling: 1 mg/mL in 1 or 2% ethanol-water, closed eyelids
[6] = dry eyes syndrome, eye wipe 0.8 mL of 4 mg/mL
[7] = eye strain, eye wipe 0.8 mL of 4 mg/mL

For `CC(C)[C@@H]1CC[C@@H](C)C[C@H]1C(=O)OCC(O)CO` (stereo partly drawn) [Compound 1, (1R,2S,5R)-2-isopropyl-5-methyl-cyclohexanecarboxylic acid 2,3-dihydroxy-propyl ester], the “solubility in saline solution” value [1] was “miscible and solubilized in saline solution”, the “stability of solution stored at room temperature” value [2] was “retained biological potency when stored at room temperature for at least three weeks” and the “symptomatic relief on as-needed use” value (closed eyelids [3]; dry eyes syndrome, as needed for three months) was “expressed satisfaction at the relief of eye discomfort”. The “duration of cooling and soothing sensations” value (closed eyelids [3]; [6]) was “at least 1 hour”, the “onset of cooling and soothing sensations” value (closed eyelids [3]; [6]) was “Within two minutes” and the sensations reported (closed eyelids [3]; [6]) was “sensation of “wetness”, and a feeling of soothing and comfort”. For the same compound, the “duration of cooling and soothing sensations” value (closed eyelids [3]; [7]) was “at least two hours”, the “effect on visual acuity” value (closed eyelids [3]; [7]) was “increase in visual acuity” and the “onset of cooling and soothing sensations” value (closed eyelids [3]; [7]) was “Within two minutes”. For the same compound, the sensations accompanying cooling (closed eyelids [4]; 32 μg, 64 μg and 128 μg per eye, saline, eye wipe) was “cooling was accompanied by a sensation of “wetness” and increased visual acuity”, the “duration of eye refreshment” value (closed eyelids [4]; 4.0 mg/mL in saline, 16 μL per eye, sterile pad) was “approximately 1 hour” and the “sensations of sting, irritation or pain” value (closed eyelids [4]; all dosages tested (16-128 μg per eye)) was “no sensations of sting, irritation, or pain”. The “effective dose via eye wipe” value (closed eyelids [4]; delivered via a 2.0 mg/mL solution in an eye wipe) was roughly 32 μg/eye and the “quality of cooling sensation” value (closed eyelids [4]; saline, eye wipe) was “Robust and refreshing cooling”.

With `COC(=O)CNC(=O)[C@@H]1C[C@H](C)CC[C@H]1C(C)C` [Compound 10, reference compound] the sensations accompanying cooling (closed eyelids [5]) was “without any sensations of wetness or increased visual acuity”, the “solubility in 1 or 2% ethanol-water solution” value [1] was 1000 µg/mL (≈ 3.92 mM) and the “cooling potency relative to CPS-030” value (closed eyelids [4]) was “more potent cooling activity than CPS-030”.

In the case of `COC(=O)[C@@H](C)NC(=O)[C@@H]1C[C@H](C)CC[C@H]1C(C)C` [Compound 9], the sensations accompanying cooling (closed eyelids [5]) is reported as “without any sensations of wetness or increased visual acuity”, the “solubility in 1 or 2% ethanol-water solution” value [1] is reported as 1000 µg/mL (≈ 3.71 mM) and the “cooling potency relative to CPS-030” value (closed eyelids [4]) is reported as “more potent cooling activity than CPS-030”.

With `CC(C)[C@@H]1CC[C@@H](C)C[C@H]1C(=O)NCC(=O)OCCCO` [CPS-160, 2-[((1R,2S,5R)-2-isopropyl-5-methyl-cyclohexanecarbonyl)-amino]-acetic acid 3-hydroxypropyl ester] the “solubility in saline solution” value [1] was “solubilized in saline solution”, the “stability of solution stored at room temperature” value [2] was “not stable and became inactive after 2 days” and the duration of cooling (closed eyelids [4]; 2 mg/mL in saline, eye wipe) was “approximately 0.6 hours”. For the same compound, the “quality of cooling sensation” value (closed eyelids [4]; saline, eye wipe) was “Robust and refreshing cooling”.

With `CCOC(=O)[C@@H](C)NC(=O)[C@@H]1C[C@H](C)CC[C@H]1C(C)C` [Compound 12, (R)-2-[((1R,2S,5R)-2-isopropyl-5-methyl-cyclohexanecarbonyl)-amino]-propionic acid ethyl ester] the cooling sensation (closed eyelids [5]; 30 mg in 0.1 mL ethanol + 7.4 mL glycerol + 7.5 mL water) was “Mild and persistent cooling”, the duration of cooling (closed eyelids [4]; 1 mg/mL dispersed in saline, eye wipe) was “approximately 1.5 hours” and the duration of cooling (closed eyelids [4]; 2 mg/mL in saline, eye wipe) was roughly 2.5 h. The “quality of cooling sensation” value (closed eyelids [4]; saline, eye wipe) was “Robust and refreshing cooling” and the “side-effect when eyelids get wet after testing” value (closed eyelids [4]; solid dispersed in saline, 1 and 2 mg/mL) was “the cooling sensations returned, sometimes with an intensity that could cause discomfort”.

With `CC(C)[C@@H]1CC[C@@H](C)C[C@H]1C(=O)OCCOCCO` [Compound 2] the duration of cooling (closed eyelids [4]; 10 mg/mL, eye wipe) was “less than 30 minutes” and the cooling intensity (closed eyelids [4]; 10 mg/mL, eye wipe, scale 0-3) was less than 2 coolness units.

For `CC(C)[C@@H]1CC[C@@H](C)C[C@H]1C(=O)OCCO` [Compound 3], the adverse sensations (closed eyelids [4]; higher two doses of 32 to 160 μg/eye range) was “brief period of warmth sensations on the eye surface and increased lachrymation” and the “cooling potency relative to CPS-030” value (closed eyelids [4]) was “about half the potency of CPS-030”.
